Measured values: patent US20100291196A1, “METHOD OF TREATMENT OF AUTISM SPECTRUM DISORDER WITH LIPOSOMAL REDUCED GLUTATHIONE” (priority 2005, published 2010)
Each block holds one molecule with its values, some of them ahead of it.

Key:
children with autism = conditions: cited from earlier work
[1] = system: methionine cycle function; conditions: for improvement with known intermediates and support supplements of the methionine cycle: Case 3, supplements taken together in the month before liposomal glutathione; for blood pressure after initiating the therapies / how the patient felt a few days after initiating the therapies: in vivo
Description: The elevation of histamine is also an indicator of decreased methylation function as it is inactivated by histamine-methyl transferase.
During the month prior to evaluation the MM initiated therapy with SAMe, folate, betaine (trimethyl glycine), N-acetylcysteine and B12 by injection and oral glutathione (neat, not in the form of the invention).

[2] = 3 grams by oral ingestion; cited from earlier work
children = assay: Practical experience and clinical observation of children using methylcobalamin by injection; type: in vivo, human
[3] = 800 μg folinic acid and 1000 mg betaine twice daily, 3 months
[4] = after a month of injection therapy
[5] = second intervention, injectable methylcobalamin added to folinic acid and betaine

Molecule: Nc1nc(=O)c2c([nH]1)NCC(CNc1ccc(C(=O)N[C@@H](CCC(=O)O)C(=O)O)cc1)N2C=O (mixture of isomers) [folinic acid]
- methionine cycle metabolites versus concentrations in controls (children with autism; [3]): effective in normalizing
- total GSH (tGSH) or GSSG concentrations or tGSH:GSSG ratio (children with autism; [3]): improved but did not normalize

Molecule: C[S+](CC[C@H](N)C(=O)[O-])C[C@H]1O[C@@H](n2cnc3c(N)ncnc32)[C@H](O)[C@@H]1O (stereo partly shown) [SAMe, S-Adenosylmethionine]
- improvement with known intermediates and support supplements of the methionine cycle [1]: did not improve
- blood pressure after initiating the therapies [1]: 170/120
- how the patient felt a few days after initiating the therapies [1]: felt worse

Molecule: cyanocobalamin [B12 (cyanocobalamin)]
- improvement with known intermediates and support supplements of the methionine cycle [1]: did not improve
- blood pressure after initiating the therapies [1]: 170/120
- how the patient felt a few days after initiating the therapies [1]: felt worse

More lines, main results first:

- how the patient felt a few days after initiating the therapies [1]: felt worse
Molecule: CC(=O)N[C@@H](CS)C(=O)O [N-acetylcysteine]
- improvement with known intermediates and support supplements of the methionine cycle [1]: did not improve
- blood pressure after initiating the therapies [1]: 170/120

- how the patient felt a few days after initiating the therapies [1]: felt worse
Molecule: C[N+](C)(C)CC(=O)O [betaine, trimethyl glycine]
- blood pressure after initiating the therapies [1]: 170/120

- how the patient felt a few days after initiating the therapies [1]: felt worse
Molecule: Nc1nc2ncc(CNc3ccc(C(=O)N[C@@H](CCC(=O)O)C(=O)O)cc3)nc2c(=O)[nH]1 [folic acid]
- improvement with known intermediates and support supplements of the methionine cycle [1]: did not improve
- blood pressure after initiating the therapies [1]: 170/120

- how the patient felt a few days after initiating the therapies [1]: felt worse
Molecule: N[C@@H](CCC(=O)N[C@@H](CS)C(=O)NCC(=O)O)C(=O)O [glutathione, gamma-glutamyl-cysteinyl-glycine]
- improvement with known intermediates and support supplements of the methionine cycle [1]: did not improve
- blood pressure after initiating the therapies [1]: 170/120
- plasma glutathione levels [2]: does not elevate

- SAH (children; methylcobalamin by itself, preliminary data): can cause an increase
Molecule: C/C1=C2/[N-][C@H]([C@H](CC(N)=O)[C@@]2(C)CCC(=O)NC[C@@H](C)OP(=O)([O-])O[C@H]2[C@@H](O)[C@@H](n3cnc4cc(C)c(C)cc43)O[C@@H]2CO)[C@]2(C)N=C(/C(C)=C3N=C(/C=C4N=C1[C@@H](CCC(N)=O)C\4(C)C)[C@@H](CCC(N)=O)[C@]\3(C)CC(N)=O)[C@@H](CCC(N)=O)[C@]2(C)CC(N)=O.[CH3-].[Co+3] [methylcobalamin]
- irritability (children; many children, methylcobalamin by injection): substantially increased irritability
- GSSG (children with autism; [4]): decreased
- level of total GSH (tGSH) (children with autism; [4]): increased
- tGSH:GSSG ratio (glutathione redox profile) (children with autism; [4]): normalization
- speech and cognition (children with autism; injection therapy, children with autism): improvement in speech and cognition
- concentration of adenosine and GSSG (children with autism; [5]): further decrease
- concentrations of methionine, cysteine, tGSH and SAM:SAH and tGSH:GSSG ratios (children with autism; [5]): further increase
